Results taken from paper PMC9449670, “Two types of peptides derived from the neurotoxin GsMTx4 inhibit a mechanosensitive potassium channel by modifying the mechanogate” (The Journal of Biological Chemistry, 2022).
Bridges are numbered along the chain shown (N, C = ends). Where no end group is shown, it is not given here.

Experiments:
[1] = target: T1, stretch-activated BK channel (SAKcaC, SAKca-WT) (Gallus gallus, UniProt Q8AYS8); assay: Single-channel excised inside-out patch clamp of native SAKcaC from ventricular myocytes, peptide backfilled in the pipette; format: cell-based, chick; conditions: for slope factor K^−1 of Po–V relationship (Boltzmann fit): control (no peptide) 25.1 ±1.16; for slope factor K^−1 of Po–V relationship (Boltzmann fit) / V1/2 of Po–V relationship (Boltzmann fit) / channel open probability Po with 50 nM peptide / channel open probability Po with 100 nM peptide / channel open probability Po with 0 nM peptide (control of the dose series) / Hill cofactor of dose–response curve: ventricular myocytes; for V1/2 of Po–V relationship (Boltzmann fit): control (no peptide) −91.5 ± 1.36 mV, n = 6 to 9; for channel open probability Po with 50 nM peptide / channel open probability Po with 100 nM peptide: 25 min following backfilling; for channel open probability Po with 50 nM peptide / channel open probability Po with 100 nM peptide / channel open probability Po with 0 nM peptide (control of the dose series): [Ca2+]i 1 mM, single sample patch
T1 construct: Native SAKcaCs were recorded from ventricular myocytes; endogenous in cells; host or cells: isolated chick ventricular myocytes
T1 sequence (Q8AYS8 1-1195 isoform Q8AYS8-3): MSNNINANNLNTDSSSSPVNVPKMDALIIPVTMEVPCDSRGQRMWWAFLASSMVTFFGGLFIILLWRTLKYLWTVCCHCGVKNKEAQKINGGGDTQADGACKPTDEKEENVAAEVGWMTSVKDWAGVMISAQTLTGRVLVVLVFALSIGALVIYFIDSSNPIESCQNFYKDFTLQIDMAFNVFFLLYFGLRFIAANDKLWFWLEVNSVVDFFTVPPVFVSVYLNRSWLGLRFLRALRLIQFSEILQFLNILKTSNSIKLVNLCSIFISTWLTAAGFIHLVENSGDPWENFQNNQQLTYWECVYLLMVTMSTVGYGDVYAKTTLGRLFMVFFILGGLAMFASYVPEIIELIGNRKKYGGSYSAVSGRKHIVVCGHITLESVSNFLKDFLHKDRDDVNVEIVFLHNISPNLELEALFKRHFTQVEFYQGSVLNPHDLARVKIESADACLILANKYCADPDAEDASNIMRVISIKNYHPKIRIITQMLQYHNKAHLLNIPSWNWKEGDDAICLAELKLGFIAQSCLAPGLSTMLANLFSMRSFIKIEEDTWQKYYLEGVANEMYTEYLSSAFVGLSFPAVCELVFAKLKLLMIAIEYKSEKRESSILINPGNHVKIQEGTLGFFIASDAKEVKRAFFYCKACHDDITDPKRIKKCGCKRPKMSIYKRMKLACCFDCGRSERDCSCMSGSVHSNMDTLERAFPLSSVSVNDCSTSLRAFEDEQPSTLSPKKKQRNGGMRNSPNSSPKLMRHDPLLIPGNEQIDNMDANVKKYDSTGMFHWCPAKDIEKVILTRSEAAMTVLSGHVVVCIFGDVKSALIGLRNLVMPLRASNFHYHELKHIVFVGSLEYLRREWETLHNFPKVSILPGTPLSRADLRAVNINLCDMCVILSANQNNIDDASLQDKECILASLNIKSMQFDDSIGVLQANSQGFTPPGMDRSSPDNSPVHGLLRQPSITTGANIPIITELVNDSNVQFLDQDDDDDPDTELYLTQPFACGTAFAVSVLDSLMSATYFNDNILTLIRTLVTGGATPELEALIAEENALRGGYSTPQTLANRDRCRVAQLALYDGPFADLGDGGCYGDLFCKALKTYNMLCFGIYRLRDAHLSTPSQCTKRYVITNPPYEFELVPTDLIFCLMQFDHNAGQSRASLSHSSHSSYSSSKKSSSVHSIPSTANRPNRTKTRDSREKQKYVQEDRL
Method: Native SAKcaCs were recorded from ventricular myocytes, which were isolated from chick hearts as described previously ([12], [13], [37]).
(§1) Single-channel currents for SAKcaC were recorded under the standard excised inside–out patch configuration. Currents were amplified using an A&M amplifier (Model 2400) or an EPC10 patch-clamp amplifier (HEKA Elektronik). Data were filtered at 10 kHz. The standard pipette solution facing the extracellular surface of the patch contained (in millimolar): 145 potassium gluconate, 1 EGTA, 10 Hepes, and 5 glucose, pH 7.4 was adjusted with NaOH. The bath solution facing the cytoplasmic surface of the patch membrane was the same except the [Ca^2+]i concentration used was 1 mM ([13], [38]).
(§2) In brief, the normal pipette solution was first filled in the tips of the electrodes, and then the same solution containing the peptide was backfilled. […] All experiments were performed with standard inside–out patch configuration at room temperature (22–25 °C).
(§3) Single-channel conductances of SAKcaC and the STREX-del mutant channel were determined by the slope of current–voltage (I–V) curves, where I–V data could be well fitted with a linear function ([12], [54]). Amplitude histograms were measured in inside–out patches mostly with one to three channels. Histograms were fitted with a Gaussian function using pClampfit software (Molecular Devices Corp.). In the case when only one channel was contained in patches, channel open probability Po (%) was determined simply by driving the total open duration of the sum of the open and closed times in patches as described previously ([51], [55]). When multiple channels were presented in the patch, Po was determined using the area under each peak (aj) at each current level (j) in the histogram along with the number of channels (N):(1) Po=∑j=0n(j∗aj)/n×∑j=0Naj Where N is the channel number in each patch, which was defined from the maximum level observed at a relatively higher voltage of +80 mV under 1 mM [Ca^2+]i.

[2] = tested on: STREX-del mutant channel (SAKcaC with STREX-exon removed); conditions: earlier work of the authors; cited from earlier work
Description: We next examined whether the two types of peptides function on the mechano-insensitive mutant channel. We have previously identified a mechano-insensitive-mutant (STREX-del) channel, of which the mechanosensor domain (STREX-exon) in SAKcaC was removed ([37], [38]). […] To investigate whether the synthetic short peptides act similarly to GsMTx4, we performed the same experiments to examine the effects of the two types of sh ...

BK (mSlo1) channel = assay: Macroscopic currents of regular BK (mSlo1) channel in excised inside-out patches from Xenopus laevis oocytes; format: cell-based, mouse; conditions: 10 μM peptide backfilled, 25 min, [Ca2+]i 100 μM, n = 4-6
Method: Macroscopic currents for regular BK (mSlo1) channels were recorded from Xenopus laevis oocytes by using standard excised inside–out patches. mSlo1 cDNA was a gift from the laboratory of Dr Christopher Lingle (Washington University), of which the vector pXMX was designed to promote […] expression ([12], [36], [52]). pClamp (Molecular Devices) was used to drive stimulus protocols and digitize currents as described previously ([51], [53]). The standard pipette (extracellular) solution contains (in millimolar): 140 KMES (methanesulfonate), 20 KOH, 10 Hepes, 2 MgCl2, and pH 7.0. The internal solution contains (in millimolar) 140 KMES, 20 KOH, 10 Hepes, 5 EGTA, and pH 7.0. The free intracellular [Ca^2+]i solution was buffered as described previously ([36], [52]).
as §2

[3] = tested on: STREX-del mutant channel (SAKcaC with STREX-exon removed); assay: Single-channel inside-out patch clamp of mechano-insensitive STREX-del mutant channel expressed in CHO cells; format: cell-based, chick
Description: (§4) The SA BK (SAKca) channel (SAKcaC) gene was cloned from the complementary DNA (cDNA) library (GenBank accession number: AB072618) from chick embryonic hearts ([13]); this was further subcloned into mammalian expression vectors (pcDNA 3.1). SAKca STREX (stress axis–regulated exon) deletion mutation (STREX-Del) was verified by sequencing as published previously ([35], [51]). Cloned SAKcaC (SAKca-WT) or STREX-Del mutant cDNAs were transiently transfected in the CHO-K1 cells using the Lipofectamine 2000 Transfection Reagent (Thermo Fisher Scientific) according to the manufacturer’s protocol. To monitor the successfully transfected cells, pEGFP (Clontech Laboratories) was coexpressed with the SAKca-WT or STREX-Del channel cDNA (5:1, w/w). The transfected cells grown on the coverslip were used for patch-clamp recordings. No endogenous BK channel activity was detected in the untransfected CHO-K1 cells. Currents were normally recorded within 1 week after cDNA transfection ([13], [37], [38]).
Single-channel currents for SAKcaC were recorded under the standard excised inside–out patch configuration. […]
as §3, with “Histograms were fitted with a Gaussian function using pClampfit software (Molecular Devices Corp.).” left out

[4] = target: T2, stretch-activated BK channel (SAKcaC) (Gallus gallus, UniProt Q8AYS8); assay: Single-channel excised inside-out patch clamp of SAKcaC expressed in CHO-K1 cells, peptide backfilled in the pipette (extracellular side); format: cell-based, chick; conditions: Vm −80 mV, [Ca2+]i 1 mM
T2 construct: expressed in transfected cells; host or cells: CHO-K1, transient transfection of pcDNA 3.1 with Lipofectamine 2000; pEGFP co-expressed as a separate marker
T2 sequence (Q8AYS8 1-1195 isoform Q8AYS8-3): as above
Description: as §4, §1, §2
as §3, with “Histograms were fitted with a Gaussian function using pClampfit software (Molecular Devices Corp.).” left out

Substance | slope factor K^−1 of Po–V relationship (Boltzmann fit) ([1]; 50 nM peptide) | V1/2 of Po–V relationship (Boltzmann fit) ([1]; 50 nM peptide) | channel open probability Po with 50 nM peptide ([1]; Vm −50 mV) | channel open probability Po with 100 nM peptide ([1]; Vm −50 mV) | channel open probability Po with 0 nM peptide (control of the dose series) ([1]; Vm −50 mV) | Hill cofactor of dose–response curve ([1]; Vm −50 mV) | effect on STREX-del channel, in words [2] | inhibition of SAKcaC Po at +30 mV ([1]; 50 nM peptide, Vm +30 mV) | inhibition of SAKcaC Po at −50 mV ([1]; 50 nM peptide, Vm −50 mV) | inhibition of SAKcaC at depolarized condition, in words ([1]; 10 μM peptide, Vm +30 mV) | effect on regular BK (mSlo1) channel, in words (BK (mSlo1) channel) | effect on STREX-del mutant channel, in words ([3]; 10 μM peptide backfilled, −60 mV (Pept 02 also +30 mV), up to 25–30 min) | V1/2 of Po–V relationship of STREX-del (Boltzmann fit) ([3]; 10 μM peptide, Po 25 min following backfilling, control (no peptide) −9.2 ± 2.3 mV, n = 4 to 9) | slope factor K^−1 of Po–V relationship of STREX-del ([3]; 10 μM peptide, control (no peptide) 23.3 ± 2.8) | inhibitory effect on SAKcaC, in words ([4]; 5 μM peptide backfilled) | averaged diffusion/inhibitory rate (τ), single-exponential fit of Po time course ([4]; 5 μM peptide, mean ± SEM, at least four experiments, SEM) | channel open probability Po at 16 min following backfilling ([4]; 5 μM peptide, single sample patch) | channel open probability Po before peptide reaches the membrane (0 peptide, 2 min after backfilling) ([4]; baseline of the same patch, 5 μM peptide backfilled, 22–25 °C, single sample patch)
GsMTx4 (GCLEFWWKCNPNDDKCCRPKLKCSKLFKLCNFSF; disulfide (positions not given here); ends not checked; UniProt Q7YT39 47-80, looked up) [reference compound] | 24.5 ± 1.63 | −47.2 ± 0.97 mV | 47.1% | 13.8% | 73.6% | 1.6 ± 0.47 | without effect |  |  |  |  |  |  |  |  |  |  | 
WKCNPNDDKC (disulfide 3-10 (inferred)) [Pept 02, 10-residue type II peptide derived from loop2 of GsMTx4] | 22.9 ± 1.11 | −23.7 ± 1.06 mV | 22.1% | 6.8% | 72.5% | 1.8 ± 0.52 |  | ~10.3% | ~71.3% | completely inhibited | failed to inhibit | not significantly altered | −5.7 ± 2.6 mV | 22.5 ± 2.1 | enhanced inhibition (%) | 2.89 ± 0.16 min | 3.6% | 42.9%
